Reference: patent publication US9314453B2, “Tetrahydropyridoethers for treatment of AMD” (KATAIRO GmbH, priority 2008, dated 2016)
Each block holds one molecule with its values, some of them ahead of it.

Assays:
[1] = test system: photoreceptors and post-receptoral systems; experiment: Electroretinography (ERG) after intravitreal injection in Wistar rats; format: in vivo; settings: for ERG a-wave and b-wave amplitudes after injection, compared with vehicle: intravitreal, 50 μg/ml or 0.25 mM in the vitreous, highest light intensity, initial decrease; for ERG a-wave and b-wave amplitudes, recovery: three weeks after the intravitreal injection
Experimental: (§1) The effects of lipofuscin in vivo, i.e. in the living eye of experimental rats after an intravitreal injection of the compounds were investigated. Vehicle solution or solutions of either substance 1 or Soraprazan were injected intravitreally in half-year old Wistar rats. The final concentration in the vitreous was the same as in the cell cultures, i.e. 50 μg/ml or 0.25 mM. In order to avoid mutual interactions between the two eyes of an animal, both eyes of an animal were treated the same way, with three animals (i.e. six eyes) per group.
(§2) Two kinds of evaluation were performed in these animals—electroretinography (ERG) for functional testing, and counting of lipofuscin particles to check whether the administration of the compounds leads to a decrease of lipofuscin contents in the RPE.
Before the injection, electroretinograms were measured to obtain base line values. Additional ERG measurements were performed one, two and three weeks after the intravitreal injections. Some results are shown in the diagrams below.

[2] = test system: retinal pigment epithelium; experiment: Transmission electron microscopy of RPE and photoreceptors after 52 weeks oral treatment; format: in vivo, Cynomolgus monkey
Experimental: In the present example the effect of Soraprazan on pigmentation of the retinal pigment epithelium in the Cynomolgus monkey (4 years of age) after oral application of 24 mg/kg/day for 52 weeks is shown.
Right eyes from the following animals were subjected to transmission electron microscopy:
Right eyes were removed carefully. A circular slit was cut at the limbus in order to immerse the inner eye with the fixation fluid (5% Glutaraldehyd in […] Cacodylat buffer). From these eyes, specimens ([…] in diameter) from the macula and from the mid-area were cut out, were postfixed in OsO4, treated with uranylacetate, dehydrated and embedded in Epon resin.
Semithin sections (0.7 μm) were prepared from Epon resin blocks. They were stained with toluidin blue and evaluated under a light microscope. Subsequently, ultrathin sections (50 nm) were cut from Epon resin blocks, contrasted and evaluated in a transmission electron microscope.
The number of lipofuscin granules that were smaller than 0.4 μm in diameter was counted in the cytoplasm of ultrathin sections of RPE cells from untreated and treated monkeys. In addition the same counts were performed in macrophages located between RPE and Bruch's membrane of treated monkeys. The results were 4.9±0.6/50 μm^2, 0.6±0.2/50 μm^2; […]. Lipofuscin granules larger than 1 μm in diameter were absent in RPE cells of treated animals. In contrast many of them were present in RPE cells of untreated monkeys.

RPE cells [3] = experiment: 52-week oral study in the Cynomolgus monkey, conventional histopathology; format: in vivo
Experimental: Soraprazan was administrated in oral application of 6, 12 and 24 mg/kg/day for 52 weeks in the Cynomolgus monkey.
Some monkeys from the control and the high-dose group were subjected to a recovery period of 3 months.
Two of these 3 monkeys had depigmentation of RPE cells although the photoreceptors facing the depigmented RPE stayed healthy. These RPE cells had released melanin as well as lipofuscin granules to secondary cells that had migrated between Bruch's membrane and the RPE cell layer or into the subretinal space.

[4] = test system: Heavily pigmented human donor RPE cells; experiment: Electron microscopy / semithin sections of heavily pigmented human donor RPE cells, degradational clusters; format: cell-based; settings: 28 days
Experimental: Heavily pigmented human donor RPE cells (passage)) were treated with 50 μg/ml substance 1 or 30 μg/ml Soraprazan and cultured for 28 days. Cells without treatment were used as controls. Cells were fixed for electron microscopy in 2% glutaraldehyde and embedded in EPON. Semithin and ultrathin sections were cut.
In the semithin sections, the clusters could be observed as well. Here, the pigmented cells bearing one or more clusters were counted. Degradational clusters were detected in 90.5%+/−21.3 of cells treated with substance 1 and in 80.1%+/−22.6 of cells treated with Soraprazan, but only in 16.8%+/−21.6 of untreated cells (p<0.0001).

[5] = test system: Retinal pigment epithelium (RPE) cells from human donor eyes; experiment: Lipofuscin content and pigmentation in cultured RPE cells from human donor eyes (digital image analysis); format: cell-based; settings: for Lipofuscin and pigment content in cultured RPE cells: 50 μg/ml or 0.25 mM, permanent exposure, versus control; for Lipofuscin and melanin in cultured human RPE cells: after 26 days of treatment (FIG. 18)
Experimental: Retinal pigment epithelium (RPE) cells from human donor eyes were cultured and exposed permanently to either vehicle solution, solution of Soraprazan or solution of 7R,8R,9R)-2,3-Dimethyl-7-ethoxy-8-hydroxy-9-phenyl-7,8,9,10-tetrahydro-imidazo-[1,2-h][1,7]-naphthyridin (called substance 1) at a concentration of 50 μg/ml or 0.25 mM. At several time points, digital images were taken and analysed with respect to the portion of lipofuscin and pigmentation in general. As the results did strongly depend on the random choice of microscopic field and the variations of the data were very high, the values of four consecutive days of five independent experiments were averaged. The results for the lipofuscin content in the RPE cells are shown in the diagram (FIG. 18).
Retinal pigment epithelium (RPE) cells from human donor eyes were cultured and exposed permanently to either vehicle solution, solution of Soraprazan or solution of substance 1 (concentration 50 μg/ml or 0.25 mM). At several time points, digital images were taken and analysed with respect to the portion of lipofuscin and pigmentation in general.

RPE cells [6] = experiment: Fluorescence microscopy of lipofuscin granules in RPE sections of treated monkeys; format: in vivo, Cynomolgus monkey
Source text: Section was illuminated under the fluorescence microscope with 360 nm wavelength light. Lipofuscin granules were detected by the emission of gold-yellow light with […] wavelength. […] Macrophages between the RPE and Bruch's membrane, however, contained many lipofuscin granules. The majority of these granules were smaller than those in RPE cells of untreated animals.

RPE = experiment: Counting of fluorescent lipofuscin particles in RPE after intravitreal injection in Wistar rats; format: in vivo; settings: three weeks after one single intravitreal injection, 50 μg/ml or 0.25 mM in the vitreous
Experimental: as §1, §2
The eyes were isolated after three weeks, fixed in formalin and embedded in paraffin. Paraffin sections were made, and digital fluorescence images were evaluated. The number of fluorescent lipofuscin particles per 50 μm RPE layer length was counted. The results are shown in the diagram (FIG. 21).

[7] = test system: RPE cell cultures from human donor eyes; experiment: Phagocytosis of fluorescent latex beads by RPE cell cultures; format: cell-based
Experimental: Then the treatment-dependent ability of the cells to phagocytose, which is a crucial function of the RPE, was checked. For this purpose, RPE cell cultures from human donor eyes were exposed to vehicle or substance 1. After three weeks, fluorescent latex beads were added to the cell cultures for four hours. The cells were then washed to remove non-phagocytosed beads and fixed. Fluorescent images of the cells were taken and analysed for the contents of lipofuscin and the number of phagocytosed beads. The results shown in FIG. 19 are presented as the relationship between lipofuscin content and phagocytosed bead number in both controls and substance-1-treated cells.

SMILES: CO[C@H]1c2ccn3c(C)c(C)nc3c2N[C@@H](c2ccccc2)[C@@H]1O [Example 1B, (7S,8S,9S)-2,3-Dimethyl-8-hydroxy-7-methoxy-9-phenyl-7,8,9,10-tetrahydro-imidazo[1,2-h][1,7]naphthyridine]
- melting point: 161 to 162 °C

SMILES: CCO[C@H]1c2ccn3c(C)c(C)nc3c2N[C@H](c2ccccc2)[C@H]1O [Example 4, (7S,8R,9R)-2,3-Dimethyl-7-ethoxy-8-hydroxy-9-phenyl-7,8,9,10-tetrahydro-imidazo[1,2-h][1,7]naphthyridine]
- melting point: 135 to 137 °C

SMILES: Cc1nc2c3c(ccn2c1C)[C@H](OC(C)C)[C@H](O)[C@@H](c1ccccc1)N3 [Example 7, (7S,8R,9R)-2,3-Dimethyl-8-hydroxy-9-phenyl-7-(2-propoxy)-7,8,9,10-tetrahydro-imidazo[1,2-h][1,7]naphthyridine]
- melting point: 168 to 169 °C

SMILES: CO[C@@H]1[C@@H](c2ccccc2)Nc2c(ccn3c(C)c(C)nc23)[C@H]1OC [Example 8, (7R,8R,9R)-2,3-Dimethyl-7,8-dimethoxy-9-phenyl-7,8,9,10-tetrahydro-imidazo[1,2-h][1,7]naphthyridine]
- melting point: 155 to 156 °C

SMILES: COCCO[C@@H]1c2ccn3c(C)c(C)nc3c2N[C@H](c2ccccc2)[C@H]1O [Soraprazan, (7R,8R,9R)-2,3-Dimethyl-8-hydroxy-7-(2-methoxyethoxy)-9-phenyl-7,8,9,10-tetrahydro-imidazo[1,2-h][1,7]naphthyridine]
- ERG a-wave and b-wave amplitudes after injection, compared with vehicle [1]: decrease of the amplitudes is even more pronounced
- ERG a-wave and b-wave amplitudes, recovery [1]: remained significantly lower than the base line
- Morphological changes in the neuroretina at the ultrastructural level ([2]; 24 mg/kg/day for 52 weeks): No morphological changes
- Monkeys with loss of melanin and lipofuscin in RPE cells ([2]; oral 24 mg/kg/day, 52 weeks): 3 out of 7
- Ultrastructural alterations in the retina compared to untreated monkeys ([2]; oral 24 mg/kg/day, 52 weeks): could not be detected
- Lipofuscin granules larger than 1 μm in diameter in RPE cells ([2]; treated animals): absent
- Number of lipofuscin granules smaller than 0.4 μm in diameter in the cytoplasm of RPE cells ([2]; ultrathin sections, treated monkeys): 0.6±0.2 /50 μm^2
- Conventional histopathology (RPE cells [3]; oral 6 mg/kg/day for 52 weeks): no alterations
- Conventional histopathology (RPE cells [3]; oral 12 mg/kg/day for 52 weeks): no alterations
- Monkeys showing migration of individual macrophages beneath the RPE and/or into the subretinal space (RPE cells [3]; oral 24 mg/kg/day for 52 weeks): Three out of 12
- Pigmented cells bearing degradational clusters ([4]; 30 μg/ml): 80.1%+/−22.6
- Lipofuscin and pigment content in cultured RPE cells [5]: decreased compared to the control
- Lipofuscin and melanin in cultured human RPE cells [5]: reduced
- Lipofuscin granules in depigmented RPE cells (fluorescence, 360 nm illumination) (RPE cells [6]): completely or almost completely absent
- Number of fluorescent lipofuscin particles per 50 μm RPE layer length (RPE): 15.0±8.3 particles per 50 μm

SMILES: CCO[C@@H]1c2ccn3c(C)c(C)nc3c2N[C@H](c2ccccc2)[C@H]1O [substance 1]
- ERG a-wave and b-wave amplitudes after injection, compared with vehicle [1]: decrease of the amplitudes is even more pronounced
- ERG a-wave and b-wave amplitudes, recovery [1]: recover almost completely
- Lipofuscin content of RPE cells ([7]; after three weeks exposure, versus control (FIG. 19)): much more lipofuscin under control conditions than under the influence of substance 1
- Number of phagocytosed latex beads ([7]; three weeks exposure, beads for four hours, versus untreated cells (FIG. 19)): phagocytosed more beads than untreated cells
- Pigmented cells bearing degradational clusters ([4]; 50 μg/ml): 90.5%+/−21.3
- Lipofuscin and pigment content in cultured RPE cells [5]: even more clear and significant decrease
- Lipofuscin and melanin in cultured human RPE cells [5]: reduced
- Number of fluorescent lipofuscin particles per 50 μm RPE layer length (RPE): 9.8±6.1 particles per 50 μm

Continued, values first:

- melting point: 108 to 110 °C
SMILES: CO[C@H]1c2ccn3c(C)c(C)nc3c2N[C@H](c2ccccc2)[C@H]1O [Example 2A, (7S,8R,9R)-2,3-Dimethyl-8-hydroxy-7-methoxy-9-phenyl-7,8,9,10-tetrahydro-imidazo[1,2-h][1,7]naphthyridine]

- melting point: 171 to 172 °C
SMILES: CO[C@@H]1c2ccn3c(C)c(C)nc3c2N[C@@H](c2ccccc2)[C@@H]1O [Example 2B, (7R,8S,9S)-2,3-Dimethyl-8-hydroxy-7-methoxy-9-phenyl-7,8,9,10-tetrahydro-imidazo[1,2-h][1,7]naphthyridine]
